In the oligonucleotide strings, read from the 5' end, every base follows the letter of its sugar. An asterisk marks phosphorothioate; unmarked linkages are phosphodiester. Other units and linkages are bracketed, terminal groups are in braces. A string of capitals states the bases alone. d = 2'-deoxy (DNA)
Columns and labels:
cells = experiment: Cytotoxicity assay of chemically modified miRNA triggers (CCK-8); type: cell-based; conditions: after transfection
Protocol: (§1) The miRNA triggers were assayed for cytotoxicity and apoptosis induction, using the CCK-8 (Cell Counting Kit-8) (Dojindo, Kumamoto, Japan) according to the manufacturer's instruction. Cells were incubated in 96-well plates (5×10^3 cells/well) at 37° C. for 24 hours under a 5% CO2 atmosphere, followed by transfection. Three days after transfection, the medium was removed. A 10-fold dilution of CCK-8 solution in DMEM was added to the cells which were then incubated at 37° C. for 2 hours. After incubation, absorbance was read at 450 nm on Tecan Infinite M200 pro microplate reader (Mnnedorf, Switzerland).
In addition, FPS HP and 2′-OMe HP, which were the most resistant to degradation in biological samples, were analyzed for cytotoxicity. In this regard, the HP in which the entire nucleotides of miRNA trigger (LP) were modified with PS (expressed as PS in Table 6 and FIG. 6), the linear probe in which the entire nucleotides of miRNA trigger (LP) were modified with 2′-O-Me (expressed as 2′O-me in Table 6 and FIG. 6), the control DNA LP (expressed as DNA in Table 6 and FIG. 6), or siRNA was transfected into cells which were then measured for cell viability using the method of Reference Example 9. The result is depicted in FIG. 6. […]

bcl-xL mRNA = bcl-xL mRNA expression in MDA-MB-453 cells; type: cell-based
Protocol: In the same manner as in Reference Example 4, miRNA triggers were transfected into cells. After 48 hours, total RNA was extracted using TRIzol (Thermo Fisher Scientific) according to the manufacturer's instruction. The purified RNA was treated with DNase I and then reverse transcribed in the presence of RevertAid reverse transcriptase (Thermo Fisher Scientific), with random hexamers (Thermo Fisher Scientific) serving as primers. For use in amplification of target genes, primers for target genes were added, together with the cDNA, to the SYBR Green PCR master mix (Thermo Fisher Scientific). RT-qPCR was conducted on a StepOnePlus real-time PCR system. Cq values obtained from this analysis was quantitatively analyzed based on the 2^−ΔΔC(t) method.
(§2) The selected linear miRNA triggers (bcl-xL(1)_222_222 and bcl-xL(2)_222_222) were transfected into the breast cancer cell line MDA-MB-453 to which miR-222 is not endogenous. Cell viability, and the mRNA and protein expression levels of the target gene (bcl-xL) were measured and the results are depicted in FIGS. 33a to 33c.

Bcl-xL = experiment: bcl-xL protein expression in MDA-MB-453 cells; type: cell-based
Protocol: miRNA triggers were transfected into cells in the same manner as in Reference Example 4. After 72 hours, the cells were collected using a cell scraper and lysed with a RIPA buffer (NaCl 150 mM, EDTA 5 mM, Tris 50 mM, NP-40 1.0%, sodium deoxycholate 0.5%, SDS 0.1%). The cell lysate was sonicated 15 times, each for 20 sec, with a halt for 30 sec every sonication. Following centrifugation at 5,000 g for 5 min, the supernatant was taken and used to extract proteins therefrom. A total of 30-40 μg of protein sample was separated in 10-15% SDS-PAGE gel and transferred onto a PVDF membrane through a semi-dry blotting system. The membrane was blocked for 1 hour in 5% skimmed milk and incubated for 2 hours with a 1,000-fold dilution of a primary antibody in, 1% skimmed milk. […] The membrane incubated with the secondary antibody was washed three times with 1×PBST for 10 min each wash, and then reacted with Clarity Western ECL Substrate (#1705061, Bio-Rad), after which images were obtained and analyzed using ChemiDoc (Bio-rad, Hercules, USA).
as §2

[1] = test system: breast cancer cell line MDA-MB-453; experiment: Cell viability of MDA-MB-453 after transfection; type: cell-based; conditions: miR-222 not endogenous
Protocol: as §1, §2

[2] = test system: breast cancer cell line MDA-MB-231; experiment: Cell viability of MDA-MB-231 after transfection; type: cell-based; conditions: Example 8-1
Protocol: as §1
The seven linear miRNA triggers prepared above and the positive control siRNA(siBcl-xL) capable of binding to bcL-xL were transfected into the breast cancer cell line MDA-MB-231 in which miR-222 is overexpressed. Cell viability was measured and is depicted in FIG. 32a.
Linear miRNA triggers that could bind to miR-222 and target bcl-xL and mcl-1, respectively, were prepared and transfected alone or in combination into the breast cancer cell line MDA-MB-231. Cell viability was measured and the measurements are depicted in FIG. 34. siRNAs against Mcl-1 and Bcl-xL were used as controls. Sequences are listed in Table 23 for the linear miRNA trigger prepared above, in Tables 22 and 9 for the controls Luc-Luc-Luc and luc-222-222, respectively, and in Table 13 for the siRNAs. Every nucleotide of the triggers and the controls was chemically modified with 2′-OMe.
Linear miRNA triggers that could bind to miR-141 or let7f and target Bcl-xL or Mcl-1 were prepared and transfected alone or in combination into the breast cancer cell line MDA-MB-231 which was then measured for cell viability. […]
The hairpin miRNA triggers prepared above were transfected into MDA-MB-231 and MDA-MB-453 cells which were then measured for cell viability. […]
Hairpin miRNA triggers which could bind to miR-222 or let-7f and target mcl-1 or bcl-xL were prepared and transfected into the breast cancer cell line MDA-MB-231 which was then measured for cell viability. […]

GFP mRNA = experiment: GFP fluorescence intensity in GFP-expressing Hela-141 cells; type: cell-based; conditions: trigger 30 to 60 nM, siGFP compared to siLuc
Text: A GFP fluorescent protein-expressing plasmid (used in Chen L L, DeCerbo J N, Carmichael G G. 2008. Alu element-mediated gene silencing. EMBO J 27: 1694-1705) was transfected into Hela-141 cells to prepare GFP-expressing Hela-141 cells. As stated in Reference Example 1, a linear miRNA trigger (LP; GFP_141_141), which can target GFP mRNA (=complementarily bind to GFP mRNA to regulate the expression of GFP) and complementarily bind to miR-141, and siRNAs which target GFP and Luc (Luciferase), respectively, were synthesized in Bioneer Inc. Sequences of the LP and siRNAs and types and positions of chemical modifications in each sequence are listed in Table 8, below.
Above all, siLuc and siGFP were transfected into the GFP-expressing Hela-141 cells which were then measured for fluorescence intensity on an ELISA reader. […] In addition, the linear miRNA trigger (GFP(1)_141_141) was transfected into the GFP-expressing Hela-141 cells which were then measured for fluorescence intensity. The result is depicted in FIG. 8. For the transfection, the GFP plasmid and GFP_141_141 were used at a concentration of 0.5 to 1 μg/ml and 30 to 60 nM, respectively.

[3] = test system: miRNA-141 and PKR mRNA (2); experiment: PAGE assay of dumbbell miRNA trigger binding to miRNA and target mRNA; conditions: 100 nM each, 37° C., 1 hour
Protocol: To a buffer (1×PBS buffer, +5 mM MgCl2, 137 mM NaCl, 10 mM PO4, 2.7 mM KCl, 5 mM MgCl2; pH 7.4) containing 100 nM of the dumbbell miRNA trigger (DP) prepared above, 100 nM miRNA and/or 100 nM target mRNA was added, followed by incubation at 37° C. for 1 hour. Each sample was loaded to a PAGE gel and run. The results are depicted in FIG. 39b.

In the case of “2′-O-Me: linear probe with entire nucleotides modified with 2′-O-Me, Table 6; SEQ ID NO 38 (UCGAAGUACUCAGCGUAAGUUCGAAGUACUCAGCGUAAGUUCGAAGUACUCAGCGUAAGU; all 2'-O-methyl, backbone not given here)”, the “cell viability versus non-transfected negative control (in words)” value (cells) is reported as “not significantly different in viability from the negative control”.

“bcl-xL(2)_222_222: linear miRNA trigger binding miR-222 and knocking down bcl-xL; SEQ ID NO 107 (ACCCAGUAGCCAGAUGUAGCUACCCAGUAGCCAGAUGUAGCUUACCUGCCAGCCUCCUU; all 2'-O-methyl, backbone not given here)” was tested, and the “mRNA expression level of target bcl-xL” value (bcl-xL mRNA) was “did not significantly change”, the “protein expression level of target bcl-xL” value (Bcl-xL) was “did not significantly change” and the cell viability [1] was “did not significantly change”. For the same molecule, the “killing of breast cancer cells (cell viability)” value [2] was “effectively kill breast cancer cells”.

With “PS: miRNA trigger of random sequence with entire nucleotides PS-modified, Table 6; SEQ ID NO 37 (dT*dC*dG*dA*dA*dG*dT*dA*dC*dT*dC*dA*dG*dC*dG*dT*dA*dA*dG*dT*dT*dC*dG*dA*dA*dG*dT*dA*dC*dT*dC*dA*dG*dC*dG*dT*dA*dA*dG*dT*dT*dC*dG*dA*dA*dG*dT*dA*dC*dT*dC*dA*dG*dC*dG*dT*dA*dA*dG*dT)” the cell viability (cells) was “less than 40%”.

For “siGFP: siRNA which targets GFP; SEQ ID NO 44 (UUAUGUUUCAGGUUCAGGG; unmodified RNA) [reference compound]”, the GFP fluorescence intensity (GFP mRNA) was “significantly reduced fluorescence intensity”.

B1: bcl-xL(1)_222_222: linear miRNA trigger binding miR-222 and knocking down bcl-xL; SEQ ID NO 106 (nucleic acid)
chain: ACCCAGUAGCCAGAUGUAGCUACCCAGUAGCCAGAUGUAGCUUCUCCUUCCUGCCCUUCCU
modifications: all 2'-O-methyl, backbone not given here
For B1, the “mRNA expression level of target bcl-xL” value (bcl-xL mRNA) was “did not significantly change”, the “protein expression level of target bcl-xL” value (Bcl-xL) was “did not significantly change” and the cell viability [1] was “did not significantly change”. The “killing of breast cancer cells (cell viability)” value [2] was “effectively kill breast cancer cells”.

B2: DB_PKRS20_141: dumbbell-shaped miRNA trigger, 20-nt mRNA-binding portion, binds miRNA-141 and PKR mRNA; SEQ ID NO 130 (nucleic acid)
chain: CCCCCCGAATGAGAAATACCATCTTTACCAGACAGTGTTATATTTCTCATTCCCTTCCTTNNAAGGAAGGGGGGGG
modifications: listed as DNA, chemistry not given here
In the case of B2, the “binding to target mRNA in the absence of the miRNA” value ([3]; lane 3) is reported as “did not bind to a target mRNA” and the “binding to miRNA and/or target mRNA in the presence of the miRNA” value ([3]; lanes 2 and 4) is reported as “could bind to a miRNA and/or target mRNA only in the presence of the miRNA”.

B3: GFP(1)_141_141: linear miRNA trigger targeting GFP mRNA and binding miR-141; SEQ ID NO 41 (nucleic acid)
chain: CCAUCUUUACCUCACAGUGUUACCAUCUUUACCUCACAGUGUUAUUAUGUUUCAGGUUCAGGGGGA
modifications: all 2'-O-methyl, backbone not given here
In the case of B3, the GFP fluorescence intensity (GFP mRNA) is reported as “reduced GFP fluorescence intensity in a dose-dependent manner”.

From patent US20230129651A1, “HAIRPIN STRUCTURE NUCLEIC ACID MOLECULES CAPABLE OF MODULATING TARGET GENE EXPRESSION AND USES THEREOF” (KOREA ADVANCED INSTITUTE OF SCIENCE AND TECHNOLOGY, priority 2021, published 2023)
